Here are results for two compounds from PMC7712428, “Dimethoate Induces DNA Damage and Mitochondrial Dysfunction Triggering Apoptosis in Rat Bone-Marrow and Peripheral Blood Cells” (Toxics, 2020).

For one data set, the system named is bone marrow cells. As to conditions: for P/N: PCE:NCE ratio. The text has this:
(§1) The experimental animals—Rattus norvegicus (Wistar strain; 8–10 weeks old; 120 ± 20 gm; males only) were acquired from Indian Institute of Integrative Medicine (IIIM-CSIR) (Jammu, India), quarantined, acclimatized and sacrificed as per standard practice conforming to the University Ethical Regulations. After acclimatization, rats were divided into five groups by stratified randomization with five animals per group. […] Distilled water was used to prepare dosing solutions of test agent and injected via intraperitoneal (i.p.) injection. At 24, 48 and 72 h post-dosing, 5 rats per duration were sacrificed and necessary tissues were isolated for different cytogenetic and molecular parameters. For CA assessment, separate experimental lot was used due to colchicine treatment.
MN assay followed the protocol of Schmid. Immediately after sacrificing the animals, both femurs were removed from the pelvic bone and freed from the extra muscles. After cutting the epiphyses, the bone marrow was collected by gentle flushing with 2 mL FBS. Centrifuge cell suspension at 1000 rpm for 5 min and discarded the supernatant. The pellets obtained were saved in 50 μL fresh FBS. Re-suspended the cell pellet and a small drop was spread onto clean grease-free glass slides and dried in air. By using absolute methanol, the smears were fixed for 10min following the staining by May-Grunwald / buffered Giemsa at pH 6.8. Micronuclei and the ratio of polychromatic erythrocyte (PCE) to normochromatic erythrocyte (NCE) i.e., P/N were scored. The micronucleus frequencies (indicated as mean percent micronucleated cells) were examined by considering the micronucleated PCEs number (MNPCEs) from at least 2000 PCEs/animal. Cytotoxic effect of test compound was evaluated by calculating the PCE:NCE ratio in at least 1000 erythrocytes per animal. For final observation, DPX mounted slides were photographed at 100× with oil immersion (Olympus U—PMTV microscope mounted with optical zoom camera).

Another data set deals with Lymphocytes. As to conditions: initial exposure time.
Description: as §1
(§2) WBCs were isolated by following the protocol of Lone et al.. Blood was collected in 0.1% EDTA from retro-orbital plexus of rat, followed by incubation for 30 min. 500 µL of blood was then added to a centrifuge tube with 1 mL FACS lysing solution. The blood was incubated for 10 min and centrifuged (2000 rpm, 10 min) at 25 °C. After discarding the supernatant, pellet was washed in 1mL FACS lysing solution followed by centrifuging at 2000 rpm for 5 min. Repeated this step twice and then pellet was put in 500 µL of PBS, leaving only WBCs.
Protocol of Majeed and colleagues was employed for flow cytometric measurements of change in Ψm. […] Leukocytes were identified via forward and side scatter.

For data set [1] the following is noted: cited from earlier work.
In another data set the test system is rat WBCs. The note with it: Mean ± SD, 40 mg/kgbw; for Sub-G1: cells percentage (apoptosis); for G1 / G2/M / S: cells percentage.
Description: as §1, §2
Post completion of exposures, PBS was used to wash the harvested cells and fixed in cold ethanol (70%) for 48 h. Cells were digested by RNase (400 μg/mL) at 37 °C for 45 min. After incubating the cells with Propidium iodide (10 μg/mL), examined instantly on flow cytometer FACSAriaII (Becton Dickinson, San Jose, CA, USA). A total of 10,000 events were obtained for cell cycle analysis.

SMILES strings stand for the structures. Read-outs that look alike come from different tables or passages of the source. Marks after values point to notes of the source that are not given here.

Turning to `CNC(=O)CSP(=S)(OC)OC` [DM, 0,0- Dimethyl S-(N-methylcarbamoylmethyl) phosphorodithiote], the “MNPCE (Mean% ± SD)” value is listed as 4.4 ± 0.51 % in the data set with bone marrow cells (20 mg/kgbw i.p., 24 h); 4.0 ± 0.44 % with bone marrow cells (20 mg/kgbw i.p., 48 h); 3.6 ± 0.50 % with bone marrow cells (20 mg/kgbw i.p., 72 h); 5.2 ± 0.58 % with bone marrow cells (40 mg/kgbw i.p., 24 h); 4.8 ± 0.86 % in the data set with bone marrow cells (40 mg/kgbw i.p., 48 h); 4.1 ± 0.73 % in the data set on bone marrow cells (40 mg/kgbw i.p., 72 h). The “MNPCE (Mean% ± SD)” value with bone marrow cells (60 mg/kgbw i.p., 24 h) came to 5.6 ± 0.7%; in the data set with bone marrow cells (60 mg/kgbw i.p., 48 h), 4.9 ± 0.74 %; in the data set with bone marrow cells (60 mg/kgbw i.p., 72 h), 3.8 ± 0.80 %. The P/N is reported as 0.740 * in the data set with bone marrow cells (20 mg/kgbw i.p., 24 h); 0.736 * with bone marrow cells (20 mg/kgbw i.p., 48 h); 0.731 * with bone marrow cells (20 mg/kgbw i.p., 72 h); 0.728 * with bone marrow cells (40 mg/kgbw i.p., 24 h); 0.715 * with bone marrow cells (40 mg/kgbw i.p., 48 h); 0.725 * in the data set on bone marrow cells (60 mg/kgbw i.p., 24 h). Also, the P/N is recorded as 0.721 * in the data set with bone marrow cells (60 mg/kgbw i.p., 48 h) and 0.718 * in the data set on bone marrow cells (60 mg/kgbw i.p., 72 h). In the data set with Lymphocytes (lymphocytes), the “maximum MMP loss” value is reported as “greater than 30%”. In the data set with Lymphocytes (range over increased DM doses), the “MMP loss in lymphocytes” value is reported as 6.3–32.3%. Besides, the hazard label result in data set [1] is “Class II, moderately hazardous”.
Turning to `O=P1(N(CCCl)CCCl)NCCCO1` (centres unmarked) [Cyclophosphamide, reference compound], in the data set on bone marrow cells (40 mg/kgbw i.p., 24 h), the “MNPCE (Mean% ± SD)” value came out at 10.6 ± 0.81 % and the P/N is 0.604 *. Further, in the data set with bone marrow cells (40 mg/kgbw i.p., 48 h), the “MNPCE (Mean% ± SD)” value is listed as 8.2 ± 0.66 % and the P/N is 0.529 **. Besides, in the data set on bone marrow cells (40 mg/kgbw i.p., 72 h), the “MNPCE (Mean% ± SD)” value is listed as 7.1 ± 0.43 % and the P/N is on record as 0.581 **. Also, in the data set with rat WBCs (24 h), the Sub-G1 was 91.3 ± 4.12 ***^,a, the G1 turned out to be 6.06 ± 1.26, the G2/M is listed as 2.53 ± 0.06 and the S came out at 0.2 ± 0.01. In the data set with rat WBCs (48 h), the Sub-G1 was 76.3 ± 4.16 ***^,a, the G1 stood at 21.33 ± 2.41, the G2/M was 1.3 ± 0.2 and the S is 0.06 ± 0.01. In the data set on rat WBCs (72 h), the Sub-G1 is listed as 98.4 ± 6.01 ***^,a, the G1 is 0.87 ± 0.03, the G2/M was determined as 0.4 ± 0.02 and the S came out at 0.33 ± 0.11.
